Test results taken from patent US8669291B2, “Phenyl substituted cycloalkylamines as monoamine reuptake inhibitors” (Sunovion Pharmaceuticals Inc., priority 2007, dated 2014).

How the values were obtained:
rats = experiment: Rat Locomotor Activity; format: in vivo; details: PO
Method: In order to ensure effects of the compounds on immobility time were not related to a general stimulant effect on baseline motor activity, locomotor activity was assessed using photocell monitored cages (Med-Associates Inc.). Each test chamber was equipped with infrared photocell beams to measure movement of the animals. Horizontal and vertical activity were measured.
Rats or mice were pretreated with vehicle or test compounds and placed back in home cage, following which they were individually placed in locomotor cages and activity was monitored in 1-5 minute intervals for intervals up to 60 min.
Data were analyzed by one way analysis of variance (ANOVA) followed by post-hoc comparisons where appropriate. An effect was considered significant if p<0.05. Data are represented as the mean and standard error to the mean (s.e.m).

5-HT Transporter (SERT) = molecular target: T1, 5-HT Transporter (SERT) (Mus musculus, UniProt Q60857); experiment: ex vivo [3H] citalopram binding to SERT sites in mouse brain; details: mice, 60 minutes after treatment
T1 construct: Cortical membranes (400 μL; equivalent to 1.25 mg wet weight of tissue/tube); from tissue; host or cells: frontal cortex of C57BL/6 mice
Method: Receptor occupancy of central noradrenaline (NA), 5-HT and dopamine (DA) transporter sites following peripheral administration of compounds was determined using [^3H] nisoxetine, [^3H] citalopram and [^3H] WIN 35428 binding, respectively. Liquid scintillation counting was used to quantify the radioactivity.
C57BL/6 mice (25-30 g) were dosed orally with either vehicle or compound at 4 dose levels. Mice were sacrificed 60 minutes after treatment. Whole brains were removed and cortex and striata dissected out before being frozen on dry ice. The brain tissue was stored at −20° C. until the day of the assay. The cortex from each hemisphere was frozen separately. One was used to determine occupancy of NA transporter sites and the other occupancy of 5-HT transporter sites. Striatum was used to determine occupancy of DA transporter sites.
Frontal cortex from each hemisphere or striata was homogenized individually in ice-cold assay buffer using a tight fitting glass/Teflon homogenizer and used immediately in the binding assay.
Cortical membranes (400 μL; equivalent to 1.25 mg wet weight of tissue/tube) were incubated with 50 μl of [^3H] citalopram at a single concentration of 1.3 nM and either 50 μl of buffer (total binding) or 50 μl of paroxetine (0.5 μM; non-specific binding) for 1 h at 27° C. For each animal, three tubes were used for the determination of total binding and three tubes were used for the determination of non-specific binding.
Membrane bound radioactivity was recovered by filtration under vacuum through Skatron 11731 filters, presoaked in 0.5% PEI, using a Skatron cell harvester. Filters were rapidly washed with ice-cold phosphate buffer and radioactivity (dpm) was determined by liquid scintillation counting (1 mL Packard MV Gold scintillator).
A value for specific binding (dpm) was generated by the subtraction of mean non-specific binding (dpm) from mean total binding (dpm) for each animal. Data are presented as mean specific binding (dpm) and as a percentage of the vehicle-treated control taken as 100%.

reserpinized rat = experiment: reserpine-treated rat Parkinson's disease model; format: in vivo
Method: The effects of compound 4 alone and in combination with L-DOPA were evaluated in the reserpine-treated rat Parkinson's disease model. The method, which detects antiparkinson activity (reversal of motor deficits and akinesia), follows that described by Johnston et al. (Exp Neurol, 191, 243-250, 2005). Eighteen hours prior to behavioural testing, rats were lightly anaesthetized with isoflurane and reserpine (3 mg/kg, sc) was injected along with saline (50 ml/kg) to prevent dehydration.
Accelerating Rotarod: Performance on an accelerating rotarod was assessed using a 4-station rat rotarod (MedAssociates, USA). The speed of rotation of the rotarod was increased from 3.5 to 35 rpm over 5 minutes and the time for which the animal remained on the rod determined as the mean of three trials.
Catalepsy Test: Catalepsy was assessed by placing the rat's forepaws on top of a horizontal wooden rod suspended 6 cm above the bench surface. Time taken to remove both paws from the rod was recorded, up to a maximum of 120 seconds. Three trials per animal were conducted.
Open Field: Activity in an open field arena was assessed using automated activity monitors (Linton Instrumentation, UK). Rats were placed in the activity boxes and locomotor activity was recorded over a 240 minute period.
Drug Administration: For the monotherapy experiment, the effects of 5 different treatments were assessed: 1) vehicle (sterile water, PO), 2) 3 mg/kg compound 4 (PO), 3) 10 mg/kg compound 4 (PO), 4) 30 mg/kg compound 4 and 5) 80 mg/kg (IP) of the positive reference substance, L-DOPA (80 mg/kg). In the combination experiment, 5 different treatments were assessed: 1) compound 4 vehicle (PO)+L-DOPA vehicle (IP), 2) compound 4 (10 mg/kg, PO)+L-DOPA vehicle (IP), 3) compound 4 vehicle (PO)+L-DOPA (30 mg/kg, IP), 4) compound 4 (10 mg/kg, PO)+L-DOPA (30 mg/kg, IP) and 5) compound 4 vehicle (PO)+L-DOPA (80 mg/kg, IP). Treatments were given in a randomized fashion and each animal received all treatment conditions. Compound 4 was administered 60 minutes prior to behavioral assessment and L-DOPA was administered immediately prior to behavioral testing.

T1 sequence (Q60857 whole entry): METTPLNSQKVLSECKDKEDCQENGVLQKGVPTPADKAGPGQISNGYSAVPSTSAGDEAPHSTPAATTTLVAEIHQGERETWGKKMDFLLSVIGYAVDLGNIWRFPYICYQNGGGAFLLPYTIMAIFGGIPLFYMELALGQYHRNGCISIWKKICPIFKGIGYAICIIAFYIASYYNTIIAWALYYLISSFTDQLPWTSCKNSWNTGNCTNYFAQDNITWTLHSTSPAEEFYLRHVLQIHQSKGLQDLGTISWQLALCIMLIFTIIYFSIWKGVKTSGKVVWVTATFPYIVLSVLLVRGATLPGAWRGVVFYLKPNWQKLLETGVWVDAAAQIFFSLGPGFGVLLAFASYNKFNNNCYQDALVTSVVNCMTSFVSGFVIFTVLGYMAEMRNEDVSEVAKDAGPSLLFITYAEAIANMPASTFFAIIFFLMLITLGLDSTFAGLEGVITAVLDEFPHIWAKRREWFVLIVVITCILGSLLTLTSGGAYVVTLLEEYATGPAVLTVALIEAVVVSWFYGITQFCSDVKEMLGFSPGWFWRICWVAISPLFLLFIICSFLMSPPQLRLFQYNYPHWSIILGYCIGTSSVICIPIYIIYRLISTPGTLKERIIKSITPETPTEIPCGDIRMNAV

Row | SMILES | Rat Locomotor Activity Total Distance Traveled ± S.E.M. (rats; 1 mg/kg) | Rat Locomotor Activity Total Distance Traveled ± S.E.M. (rats; 3 mg/kg) | Rat Locomotor Activity Total Distance Traveled ± S.E.M. (rats; 10 mg/kg) | % Transporter Occupancy, SERT (5-HT Transporter (SERT); 1 mg/kg PO) | % Transporter Occupancy, SERT (5-HT Transporter (SERT); 3 mg/kg PO) | % Transporter Occupancy, SERT (5-HT Transporter (SERT); 10 mg/kg PO) | % Transporter Occupancy, SERT (5-HT Transporter (SERT); 30 mg/kg PO) | effects of combination with low dose L-DOPA compared with higher L-DOPA dose (80 mg/kg), rotarod (reserpinized rat; 10 mg/kg, PO + L-DOPA 30 mg/kg, FIG. 5) | baseline locomotor activity (open field) performance (reserpinized rat; alone, 3-30 mg/kg, PO, FIG. 2) | rotarod performance (reserpinized rat; alone, 3-30 mg/kg, PO, FIG. 3) | catalepsy performance (reserpinized rat; alone, 3-30 mg/kg, PO, FIG. 4)
1 | CN(C)C[C@@H]1CCCC[C@@]1(O)c1ccc(Cl)c(Cl)c1 (single isomer, unassigned) [Compound 2, cis-1-(3,4-dichlorophenyl)-2-((dimethylamino)methyl)cyclohexanol] | ° (100-2500 (°)) | ° (100-2500 (°)) | °°° (>5001 (°°°)) | 11% | −1% | 6% | 5% | – | – | – | –
2 | CNC[C@@H]1CCCC[C@@]1(O)c1ccc(Cl)c(Cl)c1 [Compound 4] | – | – | – | – | – | – | – | equal in magnitude and of longer duration | dose-dependently improved performance | dose-dependently improved performance | dose-dependently improved performance
